Laboratory results as given in patent publication US20230312473A1, “PROCESS FOR THE PREPARATION OF BIHETEROARYL COMPOUNDS AND CRYSTAL FORMS THEREOF” (Genentech, Inc., priority 2020, published 2023).

Columns and labels:
Type in all cases: physicochemical
[1] = Mechanical stress evaluation: dynamic vapor sorption (DVS)
Experimental: (§1) Compound 1, produced generally according to the method of Example 5, was evaluated for changes induced mechanical stress conditions, where crystallinity was evaluated by XRPD and where thermoanalytic characteristics were measured by differential scanning calorimetry (“DSC”), thermogravimetric analysis (“TGA”) and dynamic vapor sorption (“DVS”).
(§2) About 500 mg of compound 1 was dry grinded for about 5 minutes at ambient conditions with a mortar and pestle in order to simulate shear stresses encountered during a dry granulation. […] Furthermore, thermoanalytic data as measured by DSC, TGA, and DVS was only marginally different from compound 1 starting material (see Table 12 below).
(§3) The effect of pressure on compound 1 was performed to investigate whether phase transformation could occur during tableting. The conditions were 1.8 T/5 mm compact, 900 MPa, about 30 mg of compound 1, and a dwell time of about 6 seconds). The tablets were analyzed without further treatment and after gentle crushing of the tablets with a pestle. […] FIG. 2 pattern (b) is the XRPD pattern for crushed tablets. FIG. 2 pattern (c) is the XRPD pattern for tablets that were not crushed.
(§4) To simulate wet milling, wet manual grinding experiments were done. About 500 mg of compound 1 and about 0.5 mL water were kneaded for about 5 minutes with a mortar and pestle. About 100 mg of the wet material was analyzed by XRPD. The remainder of the material was dried overnight in an oven at 50° C. and ambient pressure. The dried material was analyzed by […], DSC, TGA, and DVS.

[2] = Mechanical stress evaluation: thermogravimetric analysis (TGA)
Experimental: as §1, §2, §3, §4

[3] = Mechanical stress evaluation: crystallinity by XRPD
Experimental: as §1
In a first evaluation, compound 1 was micronized by jet milling and evaluated by XRPD and DSC.
as §2, §3, §4

[4] = after Dry Granulation (dry grinding about 5 minutes, mortar and pestle)
[5] = after Wet Granulation (wet manual grinding with water, dried at 50° C.)
[6] = untreated compound 1 starting material

Nc1ncc(-c2cc(N3C[C@@H]4C[C@H]3CO4)nc(N3CCC(F)(F)C3)n2)cc1OC(F)F [Compound 1, 5-(6-((1S,4S)-2-oxa-5-azabicyclo[2.2.1]heptan-5-yl)-2-(3,3-difluoropyrrolidin-1-yl)pyrimidin-4-yl)-3-(difluoromethoxy)pyridin-2-amine]
DVS Δm (0-90% RH) [1, 4]: 0.1% m/m | DVS Δm (0-90% RH) ([1]; after Tableting (900 MPa)): <0.1% m/m | DVS Δm (0-90% RH) ([1]; after Tableting (crushing)): 0.1% m/m | DVS Δm (0-90% RH) [1, 5]: <0.1% m/m | hygroscopicity by DVS ([1]; compacted (tableted) samples versus starting material): did not show a significant increase of hygroscopicity | DVS Δm (0-90% RH) [1, 6]: <0.1% m/m | TGA Total wt. loss [2, 4]: 0.2% m/m | TGA Total wt. loss ([2]; after Tableting (900 MPa)): 0.3% m/m | TGA Total wt. loss ([2]; after Tableting (crushing)): 0.3% m/m | TGA Total wt. loss [2, 5]: 0.2% m/m | TGA Total wt. loss [2, 6]: 0.1% m/m | crystallinity by XRPD ([3]; after manual wet milling and after hot drying of wet milled material): No reduction in the crystallinity | crystallinity by XRPD ([3]; dry grinded about 5 minutes with mortar and pestle (simulated dry granulation)): No reduction of crystallinity | influence on crystallinity ([3]; micronized by jet milling): no significant influence on crystallinity | crystallinity by XRPD ([3]; tableting, 900 MPa, dwell about 6 seconds, with and without crushing of the tablets): some reduction of crystallinity
